The values that follow come from patent US6287848A, “Dosage modeling system” (Johns Hopkins University, priority 1999, dated 2001).

Structures are written as SMILES. Like-named read-outs stand apart in the source and are kept apart here.

For data set [1], the system named is human T-lymphoblastic cell line CEM, infected with HIV. The experiment in a line: Intracellular and extracellular pharmacokinetic profiles of ZDV and its metabolites in hollow-fiber bioreactor dosing system (Example 2). In kind it is in vitro ADME. The procedure: The bioreactor includes a cartridge of polypropylene capillaries that is commercially available from Unisyn Technologies, Inc. (Hopkinton, Mass.). The cells in the bioreactor are a human T-lymphoblastic cell line CEM, infected with HIV. The volume of distribution (VD), which is total amount of fluid in the loop 201 and the central reservoir 230, is 50 ml. The fast and slow pumps are Ismatic Peristaltic Pumps commercially available from Cole-Parmer (Niles, Ill.). The dosing element is a programmable dosing pump commercially available from Medex, Inc. (Deluth, Ga.).
The fast pump is operated at a flow rate of 35 ml/min. The dilution pump 218 is operated at a flow rate of 0.5 ml/min.
The drug Zidovudine (ZDV) is infused at four different dosing regimens for a dosing period of 24 hours, i.e., 0.1 μg/ml, continuously at 0.37 μM; 100 μg every 8 hours; 150 μg every 12 hours; and 300 μg at 24 hours. The control is operated without dosing ZDV.
Samples are removed through sampling port 272. Extracellular concentrations are determined from the fluid, and intracellular concentrations are determined after harvesting and treating the cells to extract the contents.
Drug concentration time curves allow the determination of Cmax, Cmin and AUC.
Thus, the AUCs are similar for the intracellular ZDV-diphosphate and intracellular ZDV-triphosphate.

Data set [2] concerns HIV reverse transcriptase. To be noted: active metabolite; cited from earlier work.

For `Cc1cn([C@H]2C[C@H](N=[N+]=[N-])[C@@H](COP(=O)(O)OP(=O)(O)O)O2)c(=O)[nH]c1=O` [ZDV-diphosphate], in data set [1], the “intracellular AUCs across four dosing regimens” value is “similar” and the “intracellular concentration on increasing the dose of ZDV” value was “does not result in an increase”.
Turning to `Cc1cn([C@H]2C[C@H](N=[N+]=[N-])[C@@H](COP(=O)(O)O)O2)c(=O)[nH]c1=O` [ZDV-monophosphate], in data set [1] (FIG. 11a-c, ZDV infused over 24 h: continuously at 0.37 μM, 100 μg every 8 hours, 150 μg every 12 hours, 300 μg at 24 hours), the “intracellular concentration profiles across four dosing regimens” value is recorded as “different profiles”. Besides, in data set [1] (increasing the dose of ZDV), the “intracellular concentration on increasing the dose of ZDV” value is “relative increase”. Moreover, the “rate limiting step of intracellular ZDV phosphorylation” value in data set [1] (suggested by the data) is reported as “rate limiting step is the conversion of ZDV-monophosphate to ZDV-iphosphate”.
For the compound `Cc1cn([C@H]2C[C@H](N=[N+]=[N-])[C@@H](CO[P@](=O)(O)O[P@](=O)(O)OP(=O)(O)O)O2)c(=O)[nH]c1=O` [ZDV-triphosphate], in data set [1], the “amount of ZDV-triphosphate resulting from all four dosing regimens” value is “same amount”, the “intracellular AUCs across four dosing regimens” value was “similar” and the “intracellular concentration on increasing the dose of ZDV” value is “does not result in an increase”. Moreover, the “inhibits HIV reverse transcriptase, which results in the inhibition of HIV replication” value in data set [2] is “inhibits HIV reverse transcriptase”.
